Series [1] relates to HIV virions. As to the kind of experiment: ODN-mediated cleavage of viral RNA in intact HIV virions (real-time PCR, RT-PCR, agarose gel). Type of series: biochemical. As to conditions: 0.5 μM ODN, intact HIV virions, RPMI medium, 6 hours.
A further series relates to SFFV. Kind of series: NIH 3T3 cells infected with ODN-pretreated SFFV. Type of series: cell-based. To be noted: three days post-infection, real-time RT-PCR. The text has this: As next step we investigated the antiviral effect of ODNs by testing pre-treated virions for residual infectivity as has been described before for HIV particles. SFFV particles were pretreated with ODN M or its variants and used to infect NIH 3T3 cells. After three days RNA was extracted from infected cells and from the supernatants and SFFV was quantified by real-time RT-PCR and analysis of amplification products (FIG. 9b).
b. NIH 3T3 cells were infected with SFFV pretreated with various ODNs. After three days the cells and supernatants were harvested and analyzed for SFFV RNA levels by quantitative real time RT-PCR (top) and RT-PCR (bottom) using GAPDH for comparison.

Series [2] has as its system HIV virions. As to the kind of experiment: Infectivity of ODN-pre-incubated HIV virions in C81-66/45 cells. In kind it is cell-based. As to conditions: for binding/uptake of pre-treated virions by host cells: pre-incubation 4 hours, HIV RNA in infected cells 1 hour post-infection. The protocol: As a next step we investigated the antiviral effect of ODNs by testing the infectivity of treated virions in cell culture studies. We used ODN A, ODN T, as PPT and ODN CO. 2×10^5 C81-66/45 cells were infected with virions pre-incubated with different ODNs at 0.01 MOI for 1, 2 or 4 hours prior to infection. RNA was extracted from infected cells and HIV replication was analysed by real-time PCR 3 days post-infection.
To test the specificity of suppression of viral replication, the effect of ODN A on the infectivity of virions was compared with control ODNs. Virions were pre-treated with the ODNs and HIV replication in infected cells was analysed by real-time PCR, 5 days (FIG. 6A) or 20 days post-infection (FIG. 6B) and by measuring p24 production in the supernatant of the infected cells (FIG. 6C).
(A) HIV virions were incubated with 0.5 μM of ODNs for 1, 2 or 4 hours. C81-66/45 cells were infected with pre-incubated virions, at 0.01 MOI. RNA was extracted from infected cells and HIV replication was analysed by real-time PCR, 3 days post-infection (p.i.).
(B) The same experiment as in (A) was performed with ODN T, ODN CO, asPPT and ODN A pre-treated virions.
(D) C81-66145 cells were infected with virions pre-incubated with 0.5 or 5 μM of ODNs for 4 h, at an MOI of 1. RNA was extracted from infected cells and HIV replication was analysed by real-time PCR, 3 days post-infection.
(E) C81-66/45 cells were infected with virions pre-incubated with ODN A and ODN Sc for 4 h, at an MOI of 0.01. RNA was extracted from infected cells and HIV replication was analysed by real-time PCR, 1 h and 24 h post-infection. (F) The same experiment as in (E) was performed except for using ODN T, ODN B and ODN A, 1 hour post-infection.
C81-66/45 cells were infected with virions pre-incubated with ODN A, ODN T, ODN CO or as PPT for 4 h, at MOI of 0.01. RNA was extracted from infected cells and HIV replication was analysed by real-time PCR, 5 days p.i. (A), and 20 days p.i. (B); by measuring p24 production in the medium of the infected cells (C) or by RT-PCR, 11 days p.i. (D).

The target of series [3] is T1, RNase H activity of HIV RT/RNaseH (Human immunodeficiency virus type 1 group M subtype B, UniProt P04585). Also on record: the HIV RT/RNase H is a heterodimer of p66 and p51 with and without RNase H; endogenous in cells; host or cells: permeabilized HIV virions (virion-associated enzyme); panel B has added recombinant RT/RNaseH at 0.05 units/µl. As to conditions: previously described; cited from earlier work.

Series [4] has as its target T1, RNase H activity of HIV RT/RNaseH. Kind of series: Permeabilized HIV virions with ODN A and Illimaquinone, viral RNA degradation by real-time PCR. To be noted: 150 μM Illimaquinone, 50 nM ODN A, 0.1% NP-40 permeabilized virions, 30 min 37° C., without added RT/RNaseH.

The text below walks through data of US20160281089A1, “PREVENTION OF VIRAL INFECTIVITY” (priority 2005, published 2016).

“TTTGGGGGGTTCTTCCTCCTTTCCTTTTTCGCCCGTCCGTTGCGTTGATTTTTT (chemistry not given here) [ODN Sc, reference compound]”: the “amount of undigested viral RNA (real-time PCR, primers covering PPT region)” value (“amount of undigested viral RNA” below) in the series on HIV virions [1] is given as “less efficient cleavage of the viral RNA”.

As to “TCTTTTTGCGCGCTTTGTTTGTTTTTTCTTTCATTCCCCCCTTTTTCT (chemistry not given here) [ODN CG, ODN M variant with a triple nucleotide change in the second strand (SFFV tests)]”, in the series with SFFV, the “SFFV RNA in infected cells and supernatant” value is “clearly less efficient”. Also, the “amount of undigested viral RNA” value with HIV virions [1] was “antiviral activity similar to ODN A”. “AAAAGAAAAGGGGGGACTGGTTGGGTTTTCCCTTCCAGTCCCCCCTTTTCTTTT (chemistry not given here) [ODN T, passenger strand fully complementary to the antisense strand]”: the “amount of undigested viral RNA” value with HIV virions [1] is on record as “less efficient cleavage of the viral RNA”. Besides, the “binding/uptake of pre-treated virions by host cells” value with HIV virions [2] was “uptake similar to ODN A”. Besides, the “HIV replication in infected cells (real-time PCR)” value in the series with HIV virions [2] (virions pre-incubated 4 hours with 0.5 μM ODN, 0.01 MOI, 3 days post-infection) is listed as “low but detectable levels”. Consider “TTTCTTTTGGGGGGTTTGGTTGGGTTTTCCCTTCCAGTCCCCCCTTTTCTTT (chemistry not given here) [ODN B, one nucleotide removed from both 5′ and 3′ ends of ODN A]”, for which the “amount of undigested viral RNA” value in the series with HIV virions [1] was “less efficient cleavage of the viral RNA”. Moreover, in the series on HIV virions [2], the “binding/uptake of pre-treated virions by host cells” value is listed as “uptake similar to ODN A”. Take “TTTTCTTTTGCGCGCTTTGGTTGGGTTTTCCCTTCCAGTCCCCCCTTTTCTTTT (chemistry not given here) [ODN NT, triple substitution in the passenger strand at site complementary to CCCCCC]”: the “amount of undigested viral RNA” value with HIV virions [1] is “less efficient cleavage of the viral RNA”.

For the molecule “TTTTCTTTTGGGGGGACTGGTTGGGTTTTCCCTTCCAGTCCCCCCTTTTCTTTT (chemistry not given here) [ODN H, triple substitution in the passenger strand]”, the “amount of undigested viral RNA” value with HIV virions [1] was “less efficient cleavage of the viral RNA”. Consider `C=C1CCC[C@H]2[C@](C)(CC3=C(O)C(=O)C=C(OC)C3=O)[C@@H](C)CC[C@]12C` [Illimaquinone], for which the “inhibition of RNase H activity of HIV RT/RNaseH” value in series [3] was “specifically inhibit the RNase H activity”. Moreover, in series [4], the “ODN A-mediated viral RNA cleavage in presence of Illimaquinone” value was “failed to induce cleavage”. Take “TCTTTTTGGGGGGAATGTTTGTTTTTTCTTTCATTCCCCCCTTTTTCT (DNA, backbone and methylation of C not given here) [ODN S, ODN M variant, two nucleotide changes in the second strand]”: in the series with SFFV, the “SFFV RNA in infected cells and supernatant” value is given as “clearly less efficient”.
